Experimental data taken from patent publication US6727237B2, “Inhibitors of bacterial NAD synthetase” (priority 1998, dated 2004).

What was measured:
[1] = tested on: Staphylococcus epidermitis; experiment: Bacterial growth inhibition screen in LB media (absorbance 595 nm), percent inhibition; conditions: S. epidermitis
[2] = target: T1, bacterial NAD synthetase enzyme (Bacillus subtilis, UniProt P08164); experiment: biochemical; type: biochemical
T1 sequence (P08164 2-272 limits assumed): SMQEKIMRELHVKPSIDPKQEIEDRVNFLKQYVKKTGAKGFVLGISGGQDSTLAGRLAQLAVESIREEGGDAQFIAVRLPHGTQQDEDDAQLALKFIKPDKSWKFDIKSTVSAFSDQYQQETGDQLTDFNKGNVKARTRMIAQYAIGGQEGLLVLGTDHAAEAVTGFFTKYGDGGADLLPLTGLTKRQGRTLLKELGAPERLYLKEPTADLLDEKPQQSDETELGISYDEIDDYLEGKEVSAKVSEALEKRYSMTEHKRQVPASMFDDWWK

[3] = compound at 0.2 mM (Table 312A)

Compound	% Inhibition ([1]; concentration screened 100 uM) [%]	% Inhibition [2, 3] [%]	% Inhibition ([1]; concentration screened 10 uM) [%]	% Inhibition ([2]; compound at 0.1 mM (Table 314)) [%]	IC50 ([2]; lead compounds (Table 318A), read-out: IC 50) [µM]
O=C(O)c1ccc2[nH]c(CCCCC[n+]3ccccc3)cc2c1 [Compound 386]	96.36	28.75	–	–	–
O=C(OCCCCCCCCc1cc2cc(Oc3ccccc3)ccc2[nH]1)c1cccnc1 [Compound 662]	–	8.39	3.27	–	–
CC(C)c1ccc2[nH]c(CCCCOC(=O)c3ccc(N(C)C)cc3)cc2c1 [Compound 627]	20.10	11.19	–	–	–
COC(=O)c1ccc2[nH]c(CCCCC[n+]3ccccc3)cc2c1 [Compound 380]	97.64	10.09	–	–	–
CC(C)c1ccc2[nH]c(CCCCCC[n+]3cccc4ccccc43)cc2c1 [Compound 429]	–	13.01	3.06	–	–
Fc1ccc2[nH]c(CCC[n+]3cccc4ccccc43)cc2c1 [Compound 450]	–	7.90	7.45	–	–
Fc1cc(F)c2[nH]c(CCC[n+]3ccccc3)cc2c1 [Compound 300]	–	11.79	6.20	–	–
Cc1ccc2[nH]c(CCCCCC[n+]3cccc4ccccc43)cc2c1 [Compound 405]	–	6.07	44.01	–	–
COc1ccc2[nH]c(CCCCC[n+]3ccc4ccccc4c3)cc2c1 [Compound 590]	94.43	28.82	–	–	–
Fc1ccc2[nH]c(CCCC[n+]3cccc4ccccc43)cc2c1 [Compound 451]	–	–	5.57	2.94	–
O=C(c1ccccc1)c1ccc2[nH]c(CCCCCC[n+]3ccc4ccccc4c3)cc2c1 [Compound 573]	–	26.24	16.09	–	–
c1ccc(C(c2ccccc2)(c2ccccc2)c2ccc3[nH]c(CCCCCCC[n+]4ccc5ccccc5c4)cc3c2)cc1 [Compound 556]	–	–	60.18	18.19	–
O=C(O)c1ccc2[nH]c(CCCCCC[n+]3ccc4ccccc4c3)cc2c1 [Compound 603]	–	51.72	1.60	–	–
FC(F)(F)c1ccc2cc(CCCCCC[n+]3ccc4ccccc4c3)[nH]c2c1 [Compound 507]	15.86	26.18	–	–	–
CC(=O)c1ccc2[nH]c(CCCCC[n+]3ccccc3)cc2c1 [Compound 368]	91.36	–	–	21.10	–
O=[N+]([O-])c1ccc2[nH]c(CCCCCC[n+]3ccccc3)cc2c1 [Compound 333]	100.00	–	–	26.29	–
COc1ccc2c(ccn2CCCCOC(=O)Cc2ccc([N+](C)(C)C)cc2)c1 [Compound 740]	–	7.23	5.17	–	–
O=C(OCCCCCCCCc1cc2cc(C(F)(F)F)ccc2[nH]1)C(c1ccccc1)c1ccccc1 [Compound 653]	8.42	20.59	–	–	–
CC(=O)c1ccc2[nH]c(CCCCOC(=O)c3cccnc3)cc2c1 [Compound 672]	–	2.63	1.57	–	–
O=C(OCCCCc1cc2cc(C(F)(F)F)ccc2[nH]1)c1cccnc1 [Compound 654]	–	2.11	25.20	–	–
Fc1ccc2[nH]c(CCC[n+]3ccccc3)cc2c1 [Compound 342]	–	11.92	14.97	–	–
CN(C)c1ccc(CC(=O)OCCCCCCn2ccc3cc([N+](=O)[O-])ccc32)cc1 [Compound 850]	–	–	56.50	87.46	80
